PubChem BioAssay (NCI)
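Interpolation was linear, between the two tested concentrations surrounding the appropriate level; five concentrations were tested over 48 hours in 96-well plates. TGI: concentration producing complete growth inhibition.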

Legend:
Experiment in all cases: inhibition of tumour cell growth, NCI panel, 48 h
[1] = tested on: MDA-N
[2] = tested on: UACC-62 melanoma
[3] = tested on: LOX IMVI melanoma
[4] = tested on: MDA-MB-435
[5] = tested on: HCT-116 colon
[6] = tested on: U251 CNS
[7] = tested on: COLO 205 colon
[8] = tested on: NCI-H226 lung
[9] = tested on: ACHN renal
[10] = tested on: UO-31 renal
[11] = tested on: OVCAR-3 ovarian
[12] = tested on: SNB-19 CNS
[13] = tested on: IGROV1 ovarian
[14] = tested on: A549 NSCLC
[15] = tested on: CAKI-1 renal
[16] = tested on: SK-MEL-2 melanoma
[17] = tested on: NCI-H522 lung
[18] = tested on: UACC-257 melanoma
[19] = tested on: HS 578T breast
[20] = tested on: NCI-H23 lung
[21] = tested on: SF-539 CNS
[22] = tested on: MOLT-4 leukemia
[23] = tested on: 786-0 renal
[24] = tested on: SW-620 colon
[25] = tested on: SNB-75 CNS
[26] = tested on: SK-MEL-5 melanoma
[27] = tested on: SF-268 CNS
[28] = tested on: MCF7 breast
[29] = tested on: NCI/ADR-RES ovarian
[30] = tested on: M14 melanoma
[31] = tested on: KM12 colon
[32] = tested on: A498 renal
[33] = tested on: OVCAR-4 ovarian
[34] = tested on: DU-145 prostate
[35] = tested on: SN12C renal
[36] = tested on: HOP-92 NSCLC
[37] = tested on: T-47D breast
[38] = tested on: OVCAR-5 ovarian
[39] = tested on: CCRF-CEM leukemia
[40] = tested on: K-562 leukemia
[41] = tested on: RPMI-8226 leukemia
[42] = tested on: BT-549 breast
[43] = tested on: SK-OV-3 ovarian
[44] = tested on: OVCAR-8 ovarian
[45] = tested on: HCC-2998 colon
[46] = tested on: NCI-H460 lung
[47] = tested on: SF-295 CNS
[48] = tested on: HT29 colon
[49] = tested on: EKVX NSCLC
[50] = tested on: HL-60(TB) leukemia
[51] = tested on: MDA-MB-231 breast
[52] = tested on: HCT-15 colon
[53] = tested on: HOP-62 NSCLC
[54] = tested on: TK-10 renal

Work on `Cc1ccc(C2(c3ccc(F)cc3)OC(=O)c3ccccc32)c(O)c1` (centres undefined) yielded a TGI [1] of 24.3 µM, a TGI [2] of 23 µM and a TGI [3] of 26.9 µM. The TGI [4] was 31.6 µM, the TGI [5] was 26.2 µM and the TGI [6] was 46.2 µM. The TGI [7] was 41.6 µM, the TGI [8] was 76.2 µM and the TGI [9] was 28.2 µM. The TGI [10] was 22.4 µM, the TGI [11] was 17.9 µM and the TGI [12] was 38.1 µM. For the same compound, the TGI [13] was 34 µM, the TGI [14] was 47.2 µM and the TGI [15] was 24.9 µM. It also gave a TGI [16] of 30.2 µM, a TGI [17] of 35.9 µM and a TGI [18] of 31 µM. It also gave a TGI [19] of 77.4 µM, a TGI [20] of 44.9 µM and a TGI [21] of 37.5 µM. The TGI [22] was 76.3 µM, the TGI [23] was 32.1 µM and the TGI [24] was 30.6 µM. For the same compound, the TGI [25] was 31.6 µM, the TGI [26] was 33.8 µM and the TGI [27] was 86.7 µM. The TGI [28] was 37.5 µM, the TGI [29] was 46.8 µM and the TGI [30] was 30.1 µM. It also gave a TGI [31] of 51.6 µM, a TGI [32] of 36.7 µM and a TGI [33] of 41.1 µM. The TGI [34] was 28.7 µM, the TGI [35] was 27.9 µM and the TGI [36] was 34.9 µM. The TGI [37] was 28.1 µM, the TGI [38] was 28.5 µM and the TGI [39] was 94.2 µM. The TGI [40] was > 100 µM, the TGI [41] was 59.8 µM and the TGI [42] was 44.6 µM. The TGI [43] was 26.4 µM, the TGI [44] was 48 µM and the TGI [45] was 38.4 µM. The TGI [46] was 35.5 µM, the TGI [47] was 24.5 µM and the TGI [48] was > 100 µM. It also gave a TGI [49] of 92.1 µM, a TGI [50] of 41.9 µM and a TGI [51] of 46.1 µM. It also gave a TGI [52] of 32.7 µM, a TGI [53] of 28.8 µM and a TGI [54] of 29.6 µM.
